Earlier results as cited in patent publication US8785427B2, “Enzymatic process for obtaining 17 alpha-monoesters of cortexolone and/or its 9,11-dehydroderivatives” (Cosmo Dermatos Srl, priority 2007, dated 2014).

Settings: both in vitro and in vivo on the animal; described in EP1421099

CCC(=O)O[C@]1(C(=O)CO)CC[C@H]2[C@@H]3CCC4=CC(=O)CC[C@]4(C)[C@H]3CC[C@@]21C [cortexolone 17α-propionate]
antiandrogenic biological activity: high antiandrogenic biological activity

CCCC(=O)O[C@]1(C(=O)CO)CC[C@H]2[C@@H]3CCC4=CC(=O)CC[C@]4(C)C3=CC[C@@]21C [9,11-dehydro-cortexolone-17-α-butanoate, 9,11-Dehydro-Cortexolone-17α-Butanoate]
antiandrogenic biological activity: high antiandrogenic biological activity
